Data reported in ChEMBL document CHEMBL3132769, “Fragment growing to retain or alter the selectivity of anchored kinase hinge-binding fragments” (Medchemcomm, 2014).

Tests used:
[1] = target: T1, Serine/threonine-protein kinase BRSK1 (Homo sapiens) (UniProt Q8TDC3); test: Inhibition of human full length BRSK1 expressed in baculovirus assessed as substrate phosphorylation using fluorescence-labelled peptides as substrate at 95 uM after 90 mins by microfluidic peptide phosphorylation assay
T1 sequence (whole entry): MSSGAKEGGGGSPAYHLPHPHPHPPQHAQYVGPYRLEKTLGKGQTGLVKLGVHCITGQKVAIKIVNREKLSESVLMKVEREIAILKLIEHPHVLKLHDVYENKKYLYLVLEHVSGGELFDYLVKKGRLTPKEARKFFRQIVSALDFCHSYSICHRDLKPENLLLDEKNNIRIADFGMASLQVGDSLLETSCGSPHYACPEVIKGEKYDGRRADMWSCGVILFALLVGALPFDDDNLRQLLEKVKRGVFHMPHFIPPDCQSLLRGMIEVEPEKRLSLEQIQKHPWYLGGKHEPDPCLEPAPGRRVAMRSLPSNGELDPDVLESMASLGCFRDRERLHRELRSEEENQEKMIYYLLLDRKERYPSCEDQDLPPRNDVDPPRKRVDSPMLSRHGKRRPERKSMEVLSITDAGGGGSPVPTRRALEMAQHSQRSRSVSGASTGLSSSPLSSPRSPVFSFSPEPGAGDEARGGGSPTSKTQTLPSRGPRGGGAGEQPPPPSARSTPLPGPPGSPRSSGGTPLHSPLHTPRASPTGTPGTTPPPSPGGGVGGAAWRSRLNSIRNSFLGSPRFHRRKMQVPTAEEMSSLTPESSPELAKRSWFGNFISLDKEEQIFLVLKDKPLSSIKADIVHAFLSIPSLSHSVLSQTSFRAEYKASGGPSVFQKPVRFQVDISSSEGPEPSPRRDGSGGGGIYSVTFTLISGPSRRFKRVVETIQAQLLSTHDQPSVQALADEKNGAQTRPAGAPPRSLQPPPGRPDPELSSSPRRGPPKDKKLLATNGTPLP

[2] = target: Calcium/calmodulin-dependent protein kinase type II subunit gamma (Homo sapiens) (UniProt Q13555); test: Inhibition of human CAMK2 gamma catalytic domain expressed in baculovirus assessed as substrate phosphorylation using fluorescence-labelled peptides as substrate at 8 uM after 90 mins by microfluidic peptide phosphorylation assay
Calcium/calmodulin-dependent protein kinase type II subunit gamma (Homo sapiens), sequence (Q13555 whole entry, the tested form may be a part): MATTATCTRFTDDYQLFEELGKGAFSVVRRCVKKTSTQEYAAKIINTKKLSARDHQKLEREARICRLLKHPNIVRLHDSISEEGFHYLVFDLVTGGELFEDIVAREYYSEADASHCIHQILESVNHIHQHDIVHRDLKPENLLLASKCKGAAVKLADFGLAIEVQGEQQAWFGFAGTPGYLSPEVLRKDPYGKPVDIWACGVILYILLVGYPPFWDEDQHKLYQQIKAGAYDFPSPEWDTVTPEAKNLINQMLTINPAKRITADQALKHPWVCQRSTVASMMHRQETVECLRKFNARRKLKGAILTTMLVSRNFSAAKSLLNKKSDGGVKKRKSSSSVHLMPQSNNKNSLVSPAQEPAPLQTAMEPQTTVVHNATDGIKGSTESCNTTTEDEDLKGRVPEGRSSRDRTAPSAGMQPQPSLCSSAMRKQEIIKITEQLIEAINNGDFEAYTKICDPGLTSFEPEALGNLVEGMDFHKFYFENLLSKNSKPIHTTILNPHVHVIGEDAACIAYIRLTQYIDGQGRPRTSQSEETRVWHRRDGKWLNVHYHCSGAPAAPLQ

[3] = target: Protein kinase C eta type (Homo sapiens) (UniProt P24723); test: Inhibition of human truncated PKC eta expressed in baculovirus assessed as substrate phosphorylation using fluorescence-labelled peptides as substrate at 2 uM after 90 mins by microfluidic peptide phosphorylation assay
Protein kinase C eta type (Homo sapiens), sequence (P24723 whole entry, the tested form may be a part): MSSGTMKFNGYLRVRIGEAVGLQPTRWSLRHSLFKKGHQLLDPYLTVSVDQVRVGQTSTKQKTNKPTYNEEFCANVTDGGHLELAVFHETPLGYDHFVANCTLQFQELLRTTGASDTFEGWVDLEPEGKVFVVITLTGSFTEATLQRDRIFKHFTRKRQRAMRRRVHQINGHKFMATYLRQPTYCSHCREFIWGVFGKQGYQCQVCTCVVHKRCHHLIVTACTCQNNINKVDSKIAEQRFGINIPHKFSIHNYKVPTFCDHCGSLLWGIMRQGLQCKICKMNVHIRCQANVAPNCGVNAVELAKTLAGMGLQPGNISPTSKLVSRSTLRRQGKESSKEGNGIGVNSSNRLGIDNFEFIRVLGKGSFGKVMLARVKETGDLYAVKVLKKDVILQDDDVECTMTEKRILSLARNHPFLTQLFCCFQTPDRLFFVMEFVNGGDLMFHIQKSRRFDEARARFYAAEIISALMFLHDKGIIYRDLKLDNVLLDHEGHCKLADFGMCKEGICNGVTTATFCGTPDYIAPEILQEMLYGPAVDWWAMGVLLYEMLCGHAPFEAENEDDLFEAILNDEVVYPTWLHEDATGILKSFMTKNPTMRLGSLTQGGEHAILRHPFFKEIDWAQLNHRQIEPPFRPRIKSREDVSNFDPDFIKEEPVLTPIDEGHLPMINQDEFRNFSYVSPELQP

[4] = target: Protein kinase C alpha type (Homo sapiens) (UniProt P17252); settings: 0.1 uM
Description: Inhibition of human truncated PKC alpha expressed in baculovirus assessed as substrate phosphorylation using fluorescence-labelled peptides as substrate at 0.1 uM after 90 mins by microfluidic peptide phosphorylation assay

[5] = target: Hepatocyte growth factor receptor (Homo sapiens) (UniProt P08581); settings: 0.1 uM
Hepatocyte growth factor receptor (Homo sapiens), sequence (P08581 whole entry, the tested form may be a part): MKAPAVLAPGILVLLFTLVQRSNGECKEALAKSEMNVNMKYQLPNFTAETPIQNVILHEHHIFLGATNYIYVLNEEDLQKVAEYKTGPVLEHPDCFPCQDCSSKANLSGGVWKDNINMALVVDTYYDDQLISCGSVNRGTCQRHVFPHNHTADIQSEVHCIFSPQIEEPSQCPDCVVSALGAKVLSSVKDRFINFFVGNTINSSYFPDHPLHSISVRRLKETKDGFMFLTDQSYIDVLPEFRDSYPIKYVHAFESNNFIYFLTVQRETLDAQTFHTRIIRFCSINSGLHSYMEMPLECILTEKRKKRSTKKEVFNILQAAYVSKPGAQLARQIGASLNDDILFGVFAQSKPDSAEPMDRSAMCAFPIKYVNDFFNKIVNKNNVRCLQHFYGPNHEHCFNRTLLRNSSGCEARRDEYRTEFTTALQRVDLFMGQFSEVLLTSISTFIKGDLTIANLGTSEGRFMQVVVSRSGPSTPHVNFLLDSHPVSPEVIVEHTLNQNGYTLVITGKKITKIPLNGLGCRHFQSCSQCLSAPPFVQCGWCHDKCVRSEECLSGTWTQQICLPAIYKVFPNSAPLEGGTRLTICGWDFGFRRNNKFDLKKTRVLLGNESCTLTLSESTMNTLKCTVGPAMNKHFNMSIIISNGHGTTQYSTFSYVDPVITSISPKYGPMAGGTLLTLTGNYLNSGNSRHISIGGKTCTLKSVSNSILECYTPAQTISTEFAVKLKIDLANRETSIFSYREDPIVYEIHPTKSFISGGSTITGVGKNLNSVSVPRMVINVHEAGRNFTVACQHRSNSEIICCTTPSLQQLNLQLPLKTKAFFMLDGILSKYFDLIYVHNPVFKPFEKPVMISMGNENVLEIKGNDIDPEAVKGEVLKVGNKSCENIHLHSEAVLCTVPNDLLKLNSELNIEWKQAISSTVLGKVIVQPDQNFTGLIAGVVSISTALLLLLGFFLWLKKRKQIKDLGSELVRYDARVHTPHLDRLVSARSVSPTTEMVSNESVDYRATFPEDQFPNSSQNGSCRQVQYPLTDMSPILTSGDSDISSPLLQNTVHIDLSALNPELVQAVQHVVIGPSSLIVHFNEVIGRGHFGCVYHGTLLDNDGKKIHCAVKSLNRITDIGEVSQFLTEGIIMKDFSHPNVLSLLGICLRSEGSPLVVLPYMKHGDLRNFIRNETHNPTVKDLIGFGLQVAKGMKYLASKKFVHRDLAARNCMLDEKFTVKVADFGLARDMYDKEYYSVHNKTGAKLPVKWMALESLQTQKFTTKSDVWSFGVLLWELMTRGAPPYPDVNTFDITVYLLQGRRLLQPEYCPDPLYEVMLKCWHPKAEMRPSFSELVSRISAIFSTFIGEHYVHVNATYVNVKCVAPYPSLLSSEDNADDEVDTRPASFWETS
Description: Inhibition of human MET cytoplasmic domain expressed in baculovirus assessed as substrate phosphorylation using fluorescence-labelled peptides as substrate at 0.1 uM after 90 mins by microfluidic peptide phosphorylation assay

[6] = target: Tyrosine-protein kinase HCK (Homo sapiens) (UniProt P08631); test: Inhibition of human HCK catalytic domain expressed in baculovirus assessed as substrate phosphorylation using fluorescence-labelled peptides as substrate at […] after 90 mins by microfluidic peptide phosphorylation assay
Tyrosine-protein kinase HCK (Homo sapiens), sequence (P08631 2-526 limits assumed): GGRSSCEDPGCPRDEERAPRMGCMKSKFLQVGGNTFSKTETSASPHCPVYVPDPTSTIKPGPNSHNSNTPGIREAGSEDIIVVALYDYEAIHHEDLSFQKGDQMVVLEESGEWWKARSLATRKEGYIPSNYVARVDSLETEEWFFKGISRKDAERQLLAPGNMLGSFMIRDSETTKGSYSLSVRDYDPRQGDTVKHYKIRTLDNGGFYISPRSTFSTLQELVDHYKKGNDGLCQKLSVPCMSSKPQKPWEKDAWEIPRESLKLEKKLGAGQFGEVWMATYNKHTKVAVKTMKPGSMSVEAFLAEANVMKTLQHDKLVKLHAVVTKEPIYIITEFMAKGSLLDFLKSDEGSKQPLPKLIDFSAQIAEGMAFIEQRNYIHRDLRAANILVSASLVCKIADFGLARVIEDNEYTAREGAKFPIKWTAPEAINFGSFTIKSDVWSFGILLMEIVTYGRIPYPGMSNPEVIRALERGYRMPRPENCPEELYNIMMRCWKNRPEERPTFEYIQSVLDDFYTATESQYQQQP

[7] = target: Hepatocyte growth factor receptor (Homo sapiens) (UniProt P08581); test: Inhibition of human MET cytoplasmic domain expressed in baculovirus assessed as substrate phosphorylation using fluorescence-labelled peptides as substrate at 420 uM after 90 mins by microfluidic peptide phosphorylation assay
[8] = target: Tyrosine-protein kinase ABL1 (Homo sapiens) (UniProt P00519); test: Inhibition of human full-length ABL expressed in baculovirus assessed as substrate phosphorylation using fluorescence-labelled peptides as substrate at 9 uM after 90 mins by microfluidic peptide phosphorylation assay
Tyrosine-protein kinase ABL1 (Homo sapiens), sequence (P00519 whole entry, the tested form may be a part): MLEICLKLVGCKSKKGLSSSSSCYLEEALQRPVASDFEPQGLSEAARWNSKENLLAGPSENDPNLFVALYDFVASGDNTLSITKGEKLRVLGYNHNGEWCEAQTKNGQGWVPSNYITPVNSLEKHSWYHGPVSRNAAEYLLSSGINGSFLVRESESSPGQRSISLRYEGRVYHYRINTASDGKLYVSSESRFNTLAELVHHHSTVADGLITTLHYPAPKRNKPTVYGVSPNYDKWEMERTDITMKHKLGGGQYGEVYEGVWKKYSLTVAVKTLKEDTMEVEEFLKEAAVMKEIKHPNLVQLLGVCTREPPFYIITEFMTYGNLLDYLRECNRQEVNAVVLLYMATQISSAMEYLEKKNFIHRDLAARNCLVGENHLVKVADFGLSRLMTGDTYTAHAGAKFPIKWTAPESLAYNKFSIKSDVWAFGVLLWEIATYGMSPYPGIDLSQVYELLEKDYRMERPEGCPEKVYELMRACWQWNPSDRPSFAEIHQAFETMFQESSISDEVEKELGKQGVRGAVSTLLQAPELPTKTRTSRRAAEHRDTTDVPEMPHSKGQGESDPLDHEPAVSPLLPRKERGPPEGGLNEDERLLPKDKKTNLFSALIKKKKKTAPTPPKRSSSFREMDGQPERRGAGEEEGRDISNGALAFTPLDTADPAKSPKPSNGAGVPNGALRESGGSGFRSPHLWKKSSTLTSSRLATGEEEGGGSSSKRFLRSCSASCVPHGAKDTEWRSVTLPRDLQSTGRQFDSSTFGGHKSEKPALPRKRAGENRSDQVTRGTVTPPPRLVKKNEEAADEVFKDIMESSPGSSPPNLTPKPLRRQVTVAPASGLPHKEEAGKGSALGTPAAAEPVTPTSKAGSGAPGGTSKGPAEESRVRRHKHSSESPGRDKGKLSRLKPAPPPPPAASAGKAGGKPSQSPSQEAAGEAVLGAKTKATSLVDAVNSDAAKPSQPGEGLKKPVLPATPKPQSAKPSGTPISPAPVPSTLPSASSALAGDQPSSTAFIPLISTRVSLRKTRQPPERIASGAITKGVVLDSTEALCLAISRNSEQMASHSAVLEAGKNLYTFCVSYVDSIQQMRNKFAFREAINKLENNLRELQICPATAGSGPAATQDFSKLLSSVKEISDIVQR

[9] = target: T2, Protein kinase C epsilon type (Homo sapiens) (UniProt Q02156); test: Inhibition of human truncated PKC epsilon expressed in baculovirus assessed as substrate phosphorylation using fluorescence-labelled peptides as substrate at 70 uM after 90 mins by microfluidic peptide phosphorylation assay
T2 sequence (whole entry): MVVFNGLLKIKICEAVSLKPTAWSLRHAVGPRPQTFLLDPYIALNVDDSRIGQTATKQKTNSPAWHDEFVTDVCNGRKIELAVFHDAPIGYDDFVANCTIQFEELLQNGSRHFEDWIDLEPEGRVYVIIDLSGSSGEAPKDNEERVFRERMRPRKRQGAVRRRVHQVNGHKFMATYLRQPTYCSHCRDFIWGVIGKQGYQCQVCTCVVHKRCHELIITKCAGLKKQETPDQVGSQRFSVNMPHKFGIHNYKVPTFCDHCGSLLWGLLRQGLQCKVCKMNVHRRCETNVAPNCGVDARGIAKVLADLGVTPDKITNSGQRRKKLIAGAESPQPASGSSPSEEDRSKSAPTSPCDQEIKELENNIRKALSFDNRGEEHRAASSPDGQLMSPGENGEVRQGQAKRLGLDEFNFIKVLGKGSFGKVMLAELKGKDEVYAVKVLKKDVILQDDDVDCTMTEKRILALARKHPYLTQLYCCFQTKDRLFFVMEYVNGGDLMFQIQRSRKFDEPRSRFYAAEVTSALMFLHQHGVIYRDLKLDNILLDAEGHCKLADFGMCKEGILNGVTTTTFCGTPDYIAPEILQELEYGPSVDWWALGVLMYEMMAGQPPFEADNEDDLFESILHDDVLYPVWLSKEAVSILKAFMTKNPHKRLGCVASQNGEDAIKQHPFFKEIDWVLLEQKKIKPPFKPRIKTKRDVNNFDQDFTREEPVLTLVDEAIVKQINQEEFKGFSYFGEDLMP

NCCc1ccc(-c2ncnc3[nH]cnc23)cc1
inhibition [1]: 44%

NCC1CCN(c2ncnc3[nH]ccc23)CC1
inhibition [2]: 20.5%

NC1CCN(c2ncnc3[nH]ccc23)CC1
inhibition [3]: 56.5%

C[C@H](CN(C)C)Oc1nc(Nc2cc3cccc(Cl)c3cn2)cnc1C#N
inhibition [4]: 0%
inhibition [5]: 0%

COC(=O)c1cnc(Nc2cnc(C#N)cn2)cc1NCC1CCNCC1
inhibition [6]: 11%

c1nc(N2CCOCC2)c2nc[nH]c2n1
inhibition [7]: 23%

NCC1CN(c2ncnc3[nH]c4cnccc4c23)CCO1 (centres undefined)
inhibition [8]: 12%

CNCc1ccc(-c2ncnc3[nH]cnc23)cc1
inhibition [9]: 44%
